Experimental data as given in PMC3242598, “Phase I study of BIBF 1120 with docetaxel and prednisone in metastatic chemo-naive hormone-refractory prostate cancer patients” (British Journal of Cancer, 2011).
“Also recorded” adds a separate entry of the source. Read-outs that look alike come from different tables or passages of the source.

Assays:
[1] = parameters: method as in Mross et al, 2010; conditions: monotherapy phase I; ref Mross et al, 2010; cited from earlier work
[2] = tested on: advanced lung cancer patients; parameters: method as in Reck et al, 2011; conditions: phase II, ref Reck et al, 2011, cited from earlier work
[3] = tested on: VEGFR; parameters: method as in Hilberg et al, 2008; conditions: after a 1-h exposure; ref Hilberg et al, 2008; cited from earlier work
[4] = tested on: human prostate cancer xenografts; parameters: method as in Hilberg et al, 2008; conditions: human prostate cancer xenografts in athymic mice; ref Hilberg et al, 2008; cited from earlier work
[5] = tested on: patients with metastatic, chemo-naive, hormone-refractory prostate cancer (HRPC); assay: Dose escalation: dose-limiting toxicities and maximum tolerated dose; type: in vivo
Description: On days 2–21 (21-day cycle), patients took an oral dose of BIBF 1120 twice daily. Patients were instructed to swallow BIBF 1120 with water at the same time every day to ensure a dose interval of ∼12 h. On day 2 of treatment cycles (TCs) 1 and 2, patients only took the morning dose of BIBF 1120, omitting the evening dose to allow PK evaluation. All patients were premedicated with oral corticosteroids (dexamethasone 8 mg per os or methylprednisolone 32 mg per os, at 12 h and 1 h before docetaxel infusion) and subsequently took 5 mg prednisone oral BID throughout the trial. On day 1 of each TC, patients received an IV infusion of 75 mg m^−2 docetaxel administered over 1 h.
Based on prior clinical experience, the starting dose of BIBF 1120 in TC 1 was 100 mg BID; doses were escalated in 50 mg increments until the occurrence of a dose-limiting toxicity (DLT). Recognised DLTs included the occurrence of non-haematological related toxicity grade ⩾3 with the exception of alopecia, nail modifications, acute nausea or vomiting and isolated γ-glutamyl transpeptidase elevations. Alternatively, the occurrence of uncomplicated grade 4 neutropenia for >7 days, neutropenia grade ⩾3 associated with fever ⩾38.5 °C, or grade 4 thrombopenia or grade 3 thrombopenia associated with bleeding in […], was defined as a DLT. […]

[6] = tested on: metastatic hormone-refractory prostate cancer (HRPC); assay: Evaluation of response (PSA decline, RECIST); type: in vivo, human
Description: All patients who received at least one dose of BIBF 1120 or docetaxel were assessed during the safety analysis. Intensity of AEs was graded according to Common Terminology Criteria for Adverse Events (CTCAE) version 3.0. Objective response was defined as a PSA decline ⩾50% from the baseline value over two consecutive courses and/or tumour response according to RECIST criteria ([Therasse et al, 2000]).

[7] = Plasma pharmacokinetics of BIBF 1120 (HPLC-MS/MS); type: in vivo, human; conditions: for Cmax / AUC(0-t) / half-life / Tmax: human, plasma, po, 250 mg; for Cmax: read-out: Cmax, gMean (gCV%); for AUC(0-t): read-out: AUC0−24, gMean (gCV%); for half-life: read-out: t1/2, gMean (gCV%) (converted); for Tmax: read-out: tmax, median and range
Description: Plasma concentrations of BIBF 1120 and docetaxel were analysed by a validated method using high-performance liquid chromatography coupled with tandem mass spectrometry (HPLC-MS/MS) in the Department of Drug Metabolism and Pharmacokinetics (Boehringer Ingelheim Pharma GmbH & Co KG, Biberach, Germany). The assay comprises sample clean-up by automated solid-phase extraction in a 96-well plate format. Chromatography was achieved on an analytical C18 reversed phase HPLC column with gradient elution. The substance was detected and quantified by HPLC-MS/MS using electrospray ionisation in the positive ion mode. Docetaxel was analysed by HPLC-MS/MS using paclitaxel as an internal standard. The assay comprises sample clean-up by liquid–liquid extraction and chromatography on an analytical C18 reversed phase HPLC column with isocratic elution. […] For docetaxel, the lower limit was 2.5 ng ml^−1 plasma, using a plasma volume of 100 μl. The calculated parameters were plasmatic peak concentrations following the first dose (Cmax), half-life time (t1/2), area under the plasma concentration–time curve (AUCt), apparent clearance after oral administration, and apparent volume of distribution during the terminal phase.

[8] = oral 250 mg BID, day 2 of treatment cycle 2, with docetaxel
[9] = male, oral 250 mg BID, day 2 of treatment cycle 1
[10] = male, oral 250 mg BID, treatment cycle 2

For `COC(=O)c1ccc2c(c1)NC(=O)/C2=C(\Nc1ccc(N(C)C(=O)CN2CCN(C)CC2)cc1)c1ccccc1` [BIBF 1120], the t1/2 [1] is given as roughly 15 h, the “Frequency of CTCAE grade 3/4 liver enzyme elevations” value ([2]; 250 mg BID monotherapy) is given as roughly 20% and the “Frequency of CTCAE grade 3/4 liver enzyme elevations” value ([2]; 150-mg BID monotherapy) is given as “none”. For the same molecule, the “Duration of block of VEGFR activation” value [3] was greater than 32 h, the “Antitumour activity in vivo” value [4] was “potent antitumour activity” and the “Maximum tolerated dose (MTD)” value ([5]; continuous daily oral BIBF 1120 + docetaxel 75 mg m^−2 every 3 weeks + prednisone 5 mg BID) was 250 mg BID. For the same molecule, the “DLTs at dose levels <250 mg BID” value ([5]; in vivo) was “no patients experienced DLTs”, the “Estimated progression-free survival rate at 24 weeks” value ([6]; 250 mg BID + docetaxel/prednisone) was 56% and the “Patients with ⩾50% reduction in PSA levels from baseline (PSA response)” value ([6]; 19 assessable patients, BIBF 1120 + docetaxel/prednisone) was 68.4%. The “Patients with disease response (PSA and/or RECIST)” value ([6]; 19 evaluable patients, BIBF 1120 100–250 mg BID + docetaxel/prednisone) was 73.7%, the “Patients with complete biological response with normalisation of PSA” value ([6]; BIBF 1120 + docetaxel/prednisone) was 33.3% and the “Exposure with increasing doses” value ([7]; 100–250 mg BID) was “dose-dependent increase in exposure”. For the same molecule, the “Time to reach steady state” value ([7]; BIBF 1120 BID dosing) was 7 days, the “PK interaction between BIBF 1120 and docetaxel/prednisone” value ([7]; combination therapy) was “no interactions; also recorded: no hint for PK interaction; also recorded: no indication of PK interaction” and the Cmax [7, 8] was 45.9 ng/mL. The AUC(0-t) [7, 9] was 454 ng·h/mL, the half-life [7, 9] was 7.03 h and the Cmax ([7]; male, oral 250 mg BID, day 2 of treatment cycle 1, with docetaxel) was 65 ng/mL. It also gave a half-life ([7]; male, oral 250 mg BID, day 2 of treatment cycle 2) of 15.4 h, a Tmax ([7]; male, oral 250 mg BID, treatment cycle 1) of 3 h and an AUC(0-t) [7, 10] of 410 ng·h/mL. The Tmax [7, 10] was 2.08 h and the “Cmax, gMean (gCV%)” value [7, 8] was 45.8 (98.5) ng ml^−1.
